The test system of this assay is M. tuberculosis H37Rv growth inhibition. Nature of the assay: M. tuberculosis H37Rv growth inhibitors, H37Rv strain (AID 1626). To be noted: for IC90: measured here: IC90 against H37Rv; for CC50: measured here: Vero cell cytotoxicity.

Some results are limits rather than exact numbers.

One may read the IC50 as the point on the concentration scale where inhibition reaches its midpoint. What is called IC90 is the concentration needed for an effect of 90%. High values mean weaker potency, low ones greater potency. Broadly, the CC50 is the concentration at which the toxic effect on the cells reaches its halfway point. A lower CC50 goes with greater toxicity to the cells. For the compound `OCCN1CCN(c2nc(-c3ccccc3)nc3c2oc2ccccc23)CC1`, the concentration for half-maximal inhibition (IC50) was 4.89 µM, the 90% effect concentration (IC90) came out at 8.31 µM and the 50% cytotoxic concentration (CC50) was found to be 13.6 µM.

Take `Cc1ccc2nc(/C(C#N)=C\c3ccc(OC(=O)c4cccs4)cc3)[nH]c2c1`: the IC50 is 20.4 µM, the IC90 is greater than 100 µM and the CC50 was determined as 22.9 µM.

`CC(NC(=O)c1ccc([N+](=O)[O-])cc1[N+](=O)[O-])c1ccc(-c2ccccc2)cc1` (stereo not given): the half-inhibitory concentration (IC50) was 2.51 µM, the IC90 was greater than 100 µM and the CC50 was greater than 40 µM.

Consider `CCc1ccc2[nH]c(O)c(N=Nc3nc(-c4ccccc4)cs3)c2c1`, for which the IC50 was 1.81 µM, the IC90 came to 3.44 µM and the CC50 came to 37 µM.

Take `S=c1[nH]cnc2sc(-c3ccccc3)cc12`: the IC50 is 8.3 µM and the IC90 was greater than 100 µM.

Take `O=C1CSc2ccc(C(=O)Nc3cccc(S(=O)(=O)Nc4ccc(Br)cc4)c3)cc2N1`: the IC50 was 7.03 µM, the IC90 is 11.9 µM and the CC50 came out at 16.5 µM.

Consider `Cc1ccc(C(O)(c2ccccc2)c2ccccc2C(C)N(C)C)c(C)c1` (stereo not given), for which the IC50 was 11.7 µM, the IC90 was 19.9 µM and the CC50 was determined as 39 µM.

As to `CC(=O)c1ccc(NC(=O)CSCC(=O)Nc2ccc3ccccc3c2)cc1`, the IC50 was 51 µM and the IC90 is greater than 100 µM.

As to `COC(=O)CCSc1cc(NCCOC(C)=O)c([N+](=O)[O-])c2nonc12`, the IC50 was 16.1 µM and the IC90 was determined as 40.3 µM.

As to `O=C(CCSc1nnc(-c2ccccc2)o1)N1CCOCC1`, the IC50 is 13 µM and the IC90 amounted to 18 µM.

On to `Cc1cc2ncn(/N=C/c3ccc([N+](=O)[O-])s3)c2cc1C`, for which the IC50 was less than 0.195 µM, the IC90 is 0.282 µM and the 50% cytotoxic concentration (CC50) is 8.74 µM.

As for `Cc1nn(-c2ccccc2)c(N)c1C(c1ccc(C(C)C)cc1)c1c(C)nn(-c2ccccc2)c1N`, the IC50 is 8.73 µM, the IC90 was 13 µM and the CC50 is greater than 40 µM.

With `O=C(Nc1nnc(-c2ccc(F)cc2)o1)c1cc(Cl)sc1Cl`, the IC50 is less than 0.195 µM, the IC90 is 2.86 µM and the CC50 stood at 18.2 µM.

As to `Cc1cc(NC(=O)CSc2nc(C(C)C)nc3sc4c(c23)CCCC4)no1`, the 50% inhibitory concentration (IC50) is 11.2 µM, the IC90 was greater than 100 µM and the CC50 was greater than 40 µM.

As to `CCn1ccnc1CN(C)Cc1cn(-c2ccc(C)cc2)nc1-c1cccc(C)c1`, the IC50 is 2.73 µM, the IC90 came out at 3.64 µM and the CC50 was greater than 40 µM.

In the case of `CC(C)=CCN1CCN(CCC2=C(C)CCCC2(C)C)CC1CCO` (stereo not given), the IC50 was 5.88 µM and the IC90 stood at 6.66 µM.

Consider `O=C1/C(=C/c2ccccc2[N+](=O)[O-])COc2ccccc21`, for which the IC50 is 2.9 µM, the concentration for an effect of 90% (IC90) was 3.25 µM and the CC50 was 5.95 µM.

For `Clc1ccc2nc(-c3ccccn3)c(Nc3ccc4c(c3)OCO4)n2c1`, the concentration for half-maximal inhibition (IC50) was 2.56 µM, the 90% effect concentration (IC90) is 4.43 µM and the CC50 was 11.1 µM.

In the case of `Cc1cc(=O)[nH]c(SCC(=O)C23CC4CC(CC(C4)C2)C3)c1C#N`, the IC90 is greater than 100 µM and the cytotoxic concentration (CC50) was determined as 21.2 µM.

Consider `CC(=O)Nc1nc2ccccc2n1Cc1ccccc1Cl`, for which the IC50 was less than 0.195 µM, the IC90 was greater than 100 µM and the cytotoxic concentration (CC50) amounted to 16.3 µM.

As for `Cc1nc(S/C(=C/c2ccc(-c3ccc(Cl)cc3)o2)C(=O)O)n[nH]1`, the IC50 was 10.6 µM, the IC90 is greater than 100 µM and the CC50 is greater than 40 µM.

For the compound `CCCc1cc(-c2nc(-c3ccc(Br)cc3)cs2)ccn1`, the IC50 is 5.68 µM and the IC90 was found to be 10.4 µM.

With `O=C(CCNc1ccc(Cl)c(C(F)(F)F)c1)c1ccco1`, the IC50 is 49.3 µM and the IC90 was greater than 100 µM.

`Cc1cccc(-n2cc(CN(C)Cc3nccn3C)c(-c3cccc(F)c3)n2)c1`: the IC50 was 7.43 µM, the IC90 is 12.1 µM and the 50% cytotoxic concentration (CC50) is greater than 40 µM.

In the case of `Cc1cc(NCCCn2ccnc2)n2nc(-c3ccc(Cl)cc3)cc2n1`, the IC50 is 11.1 µM, the IC90 came out at 15.8 µM and the CC50 was greater than 40 µM.

`Clc1cccc(-c2nc(NCCN3CCOCC3)c3ccccc3n2)c1`: the IC50 is 12.6 µM, the IC90 came out at 17.6 µM and the 50% cytotoxic concentration (CC50) was greater than 40 µM.

Turning to `Cc1ccc(N/C(N)=N/c2nc(C)cc(N3CCCCC3)n2)c(C)c1`, the half-inhibitory concentration (IC50) is 2.17 µM, the IC90 turned out to be 3.68 µM and the cytotoxic concentration (CC50) amounted to 9.19 µM.

Take `Cc1[nH]n2c(=O)c3c(nc2c1-c1ccccc1)CCCC3`: the IC50 was 2.89 µM, the IC90 came out at 4.05 µM and the CC50 came out at 22.8 µM.

Turning to `O=C(O)c1ccc(N2C(=O)/C(=C/c3ccc(-c4ccc([N+](=O)[O-])cc4)o3)C=C2c2ccccc2)cc1`, the IC50 is 19 µM, the IC90 was determined as 26.5 µM and the CC50 is 20.1 µM.

Take `CCOc1ccc(NC(=O)CN2CCN(CC(=O)Nc3ccc(Cl)c(C(F)(F)F)c3)CC2)cc1`: the IC50 is 7.93 µM, the 90% effect concentration (IC90) turned out to be 11.3 µM and the CC50 was determined as 20.8 µM.

Take `COc1cc(/C=C/C(=O)c2cccc([N+](=O)[O-])c2)cc(OC)c1OC`: the IC50 was 3.77 µM, the IC90 was 11.2 µM and the CC50 was 18.5 µM.

With `CN(C)CCCn1c(SCC(=O)Nc2nc(-c3cccc(Br)c3)cs2)nc2ccccc2c1=O`, the IC50 is 5.61 µM, the IC90 is 5.96 µM and the 50% cytotoxic concentration (CC50) amounted to 8.6 µM.

On to `Cc1cc(N2C3CCC2CC(O)(c2ccc(F)cc2)C3)nc(-c2ccccc2)n1` (stereo not given), for which the 50% inhibitory concentration (IC50) is 31.6 µM, the IC90 is greater than 100 µM and the CC50 was greater than 40 µM.

For the compound `NS(=O)(=O)c1ccc(CCNC(=O)c2ccc3nc4ccc(Cl)cc4c(=O)n3c2)cc1`, the IC50 is 10.1 µM and the IC90 stood at 30.3 µM.

Take `c1ccc(-c2nc(NCc3ccco3)c3ccccc3n2)nc1`: the IC50 is 1.92 µM, the IC90 was found to be 3 µM and the CC50 is 9.33 µM.

As for `O=C(NCc1ccco1)c1cc2n(n1)C(C(F)(F)F)CC(c1ccc(Cl)c(Cl)c1)N2` (stereo not given), the IC90 is greater than 100 µM and the CC50 was greater than 40 µM.

Consider `COc1ccc(CCNC(=O)NC23CC4CC(CC(C4)C2)C3)cc1`, for which the IC50 is 12.9 µM, the IC90 was greater than 100 µM and the CC50 is greater than 40 µM.

Consider `CCN1CCN(Cc2ccc(NC(=O)c3ccc(C)c(NC(=O)c4cc(-c5ccc(Br)cc5)n[nH]4)c3)cc2C(F)(F)F)CC1`, for which the 50% inhibitory concentration (IC50) was 2.16 µM, the IC90 stood at 2.85 µM and the CC50 was 13 µM.

`Cn1nc(C(F)(F)F)c(-c2ccc(Br)cc2)c1NC(=O)c1cccnc1`: the IC90 was greater than 100 µM and the CC50 was greater than 40 µM.

`O=C(CSc1cccc2cccnc12)N1CCCC1` displayed a CC50 of 27.4 µM.

Regarding `CCOC(=O)Oc1ccc2oc(C)c(C(=O)OCCOC)c2c1`, the IC50 is 26.1 µM and the IC90 was greater than 100 µM.

As to `O=C(C[n+]1cc(-c2ccc(F)cc2)n2c1CCC2)N1c2ccccc2Sc2ccccc21`, the IC50 was 38.7 µM and the IC90 is greater than 100 µM.

As for `N=C1SCC(=O)N1c1ncc(Cc2cccc(Cl)c2)s1`, the IC50 was less than 0.195 µM, the IC90 turned out to be 4.92 µM and the CC50 was greater than 40 µM.

For `O=C(COC(=O)c1sc2ccccc2c1Cl)NC1CCCCC1`, the IC50 was 12.7 µM, the IC90 is greater than 100 µM and the CC50 is greater than 40 µM.

In the case of `O=C(Nc1ccc(F)cc1F)Nc1csc2ccccc12`, the IC50 was less than 0.391 µM, the IC90 amounted to 52.7 µM and the CC50 is greater than 40 µM.

For `Nc1nc2ccccc2n1C(=O)c1ccc(F)cc1`, the IC50 was 1.93 µM, the IC90 was 4.15 µM and the CC50 is greater than 40 µM.

Regarding `Cc1ccc(-c2nc(C(Cl)Cl)c3ccccc3n2)cc1`, the IC50 is 4.4 µM, the IC90 worked out at 12.1 µM and the CC50 came out at 0.923 µM.

Regarding `CC1CC(C)CN(C(=O)/C=C/c2ccc([N+](=O)[O-])s2)C1` (stereo not given), the IC50 is 10.2 µM, the IC90 is 13.3 µM and the CC50 was 37.4 µM.

As to `Cc1cc(=O)oc2cc(OC(=O)c3ccco3)ccc12`, the IC50 was 61.6 µM and the IC90 was greater than 100 µM.

For the compound `COC(=O)CSc1cc(SCC(=O)OC)c(C#N)c(SCC(=O)OC)c1`, the IC50 is 0.785 µM and the IC90 was 2.61 µM.

Turning to `Cc1nn2c(NCCCN(C)C)c3c(nc2c1-c1ccccc1)CCC3`, the IC50 is 45.7 µM, the IC90 is 50.1 µM and the CC50 turned out to be 23.2 µM.

In turn, `CCc1c(C#N)c(N)nc(SCC(=O)OCc2ccccc2)c1C#N` yielded an IC90 greater than 100 µM.

As to `Cn1c(-c2ccccc2)cc2c3no[n+]([O-])c3ccc21`, the IC50 is less than 0.195 µM, the IC90 stood at 0.445 µM and the CC50 worked out at 2.6 µM.

`O=C1CC(/C=C/c2ccc(Cl)cc2)=Nc2ccccc2N1`: the concentration for half-maximal inhibition (IC50) is 6.69 µM, the IC90 was greater than 100 µM and the CC50 came to 38.6 µM.

Regarding `COc1ccc(C(C(=O)NC2CCCCC2)N(C(=O)c2sc(C)nc2C)c2ccc(C(C)=O)cc2)cc1` (stereo not given), the IC50 is 65.5 µM and the IC90 is greater than 100 µM.

Consider `COc1ccc(C(=O)CNc2ccc3ccccc3c2)cc1`, for which the IC50 was 4.74 µM and the IC90 is greater than 100 µM.

On to `COc1ccc(C(=O)C(CN2CCOCC2)c2ccccc2)cc1F` (stereo not given), for which the IC50 is 11.5 µM, the IC90 was found to be 12.5 µM and the CC50 turned out to be 16.1 µM.

`COc1ccc(NCC(=O)Nc2ccccc2C#N)cc1Cl`: the IC50 was 97.8 µM and the IC90 is greater than 100 µM.

Regarding `CCn1c(COc2cccc3ccccc23)nnc1SCC(=O)OC1CCCCC1`, the IC50 was 4.04 µM and the IC90 was 14.1 µM.

`O/C(=C\c1nc2ccccc2nc1/C=C(\O)c1ccccc1)c1ccccc1` gave an IC90 greater than 100 µM and a CC50 greater than 40 µM.

As to `COc1ccc(NC(=O)COC(=O)CCCOc2ccc(Cl)cc2Cl)cc1Cl`, the IC50 was 80.6 µM and the IC90 was greater than 100 µM.

For `COC(=O)CSc1ccc(C#N)c(SCC(=O)OC)c1`, the concentration for half-maximal inhibition (IC50) is 3.27 µM and the IC90 turned out to be 10.4 µM.
